Assay results reported in ChEMBL document CHEMBL1142366, “Synthesis of pyrimidine and quinolone conjugates as a scaffold for dual inhibitors of HIV reverse transcriptase and integrase” (Bioorg Med Chem Lett, 2008).

Key:
[1] = Inhibition of HIV integrase; set-up: species or system Human immunodeficiency virus
[2] = Inhibition of HIV reverse transcriptase; set-up: species or system Human immunodeficiency virus
[3] = tested on: Human immunodeficiency virus; experiment: Antiviral activity against HIV by cell based assay; format: functional, organism-based; settings: Human immunodeficiency virus 1

`CC(C)c1c(Cc2ccccc2)n(COCc2ccc3[nH]cc(C(=O)O)c(=O)c3c2)c(=O)[nH]c1=O` showed an IC50 [1] of 35000 nM, an IC50 [2] of 190 nM and an EC50 [3] of 220 nM.
In the case of `CCn1cc(C(=O)O)c(=O)c2cc(COCn3c(Cc4ccccc4)c(C(C)C)c(=O)[nH]c3=O)ccc21`, the IC50 [1] is reported as 51000 nM, the IC50 [2] is reported as 1100 nM and the EC50 [3] is reported as 1500 nM.
With `CC(C)c1c(Cc2ccccc2)n(COCc2ccc3c(c2)c(=O)c(C(=O)O)cn3C)c(=O)[nH]c1=O` the IC50 [1] was 41000 nM, the IC50 [2] was 2600 nM and the EC50 [3] was 210 nM.
`CC(C)c1c(Cc2ccccc2)n(COCc2ccc3c(c2)c(=O)c(C(=O)O)cn3CCO)c(=O)[nH]c1=O` showed an IC50 [1] of 19000 nM, an IC50 [2] of 3700 nM and an EC50 [3] of 2200 nM.
